The record followed here is PubChem BioAssay AID1259407 (Chemical Carcinogenesis Research Information System (CCRIS), 2018).

Molecules are shown by their SMILES. Active and inactive are the calls of the source. No rule for the calls is given here.

The data set deals with CCRIS mutagenicity, Ames/micronucleus/aberration tests. Description: CCRIS mutagenicity studies.
Where [1] appears, read: Test System: AMES SALMONELLA TYPHIMURIUM, Strain/Indicator: TA100, Metabolic Activation: NONE, Method: PREINCUBATION

As for `c1ccc2ncccc2c1`, the mutagenic call is, setting by setting: (End Point: IN VITRO CHROMOSOMAL ABERRATIONS, Test System: CHL CELLS, Metabolic Activation: NONE) “inactive; negative”; (End Point: IN VITRO CHROMOSOMAL ABERRATIONS, Test System: CHL CELLS, Metabolic Activation: RAT, LIVER, S-9, SODIUM PHENOBARBITAL AND 5,6-BENZOFLAVONE) “active; positive (structural changes)”; (End Point: IN VIVO MICRONUCLEUS, Test System: HEPATOCYTES, Species: RAT, Strain/Sex: FISHER 344 OR SD/MALE, Route: ORAL OR IP) “active; positive”; (End Point: IN VIVO MICRONUCLEUS, Test System: PERIPHERAL BLOOD RETICULOCYTES, Species: RAT, Strain/Sex: FISHER 344 OR SD/MALE, Route: ORAL OR IP) “inactive; negative; significant increase at 150 mg/kg”; (End Point: In vitro chromosomal aberrations, Test System: Chinese hamster lung fibroblast cells (CHL/IU), Metabolic Activation: Rat, liver, S-9) “active; positive (information derived from figure)”; (End Point: In vitro micronucleus, Test System: Chinese hamster lung fibroblast cells (CHL/IU), Metabolic Activation: Rat, Liver, S-9) “active; positive, cytotoxic at 0.1 mg/ml (information derived from a figure)”. For the same compound, the mutagenic call is, setting by setting: (End Point: In vitro micronucleus, Test System: Chinese hamster lung fibroblast cells (CHL/IU), Metabolic Activation: Rat, liver, S-9) “active; positive (information derived from a figure)”; (End Point: In vivo micronucleus, Test System: Micronucleated hepatocytes, Species: Rat, Strain/Sex: F344/Male, Route: Oral) “active; positive (p<0.05)”; (Test System: AMES SALMONELLA TYPHIMURIUM, Strain/Indicator: TA98, Metabolic Activation: NONE, Method: PREINCUBATION) “inactive; negative”; (Test System: AMES SALMONELLA TYPHIMURIUM, Strain/Indicator: TA98, Metabolic Activation: RAT LIVER S-9, PHENOBARBITAL AND BETA-NAPHTHOFLAVONE, Method: PREINCUBATION) “active; positive”; (Test System: AMES SALMONELLA TYPHIMURIUM, Strain/Indicator: TA98, Metabolic Activation: RAT, LIVER, S-9, (5%, 10% OR 20%) AROCLOR 1254, Method: STANDARD PLATE) “active; positive”; (Test System: AMES SALMONELLA TYPHIMURIUM, Strain/Indicator: TA98, Metabolic Activation: RAT, LIVER, S-9, AROCLOR 1254, Method: STANDARD PLATE) “active; positive”. Moreover, the mutagenic call runs as follows: (Test System: AMES SALMONELLA TYPHIMURIUM, Strain/Indicator: TA98, Metabolic Activation: RAT, LIVER, S-9, KC500 OR PHENOBARBITAL, Method: LIQUID SUSPENSION) “active; positive”; (Test System: AMES SALMONELLA TYPHIMURIUM, Strain/Indicator: TA98, Metabolic Activation: RAT, LIVER, S-9, PCB, Method: PREINCUBATION) “active; positive”; (Test System: AMES SALMONELLA TYPHIMURIUM, Strain/Indicator: TA98, Metabolic Activation: RAT, LIVER, S-9, Method: PREINCUBATION) “active; positive”; under setting [1], “inactive; negative”; (Test System: AMES SALMONELLA TYPHIMURIUM, Strain/Indicator: TA100, Metabolic Activation: RAT LIVER S-9, PHENOBARBITAL AND 5,6-BENZOFLAVONE, Method: PREINCUBATION) “active; positive”; (Test System: AMES SALMONELLA TYPHIMURIUM, Strain/Indicator: TA100, Metabolic Activation: RAT LIVER S-9, PHENOBARBITAL AND BETA-NAPHTHOFLAVONE, Method: PREINCUBATION) “active; positive”. In addition, the mutagenic call is “active; positive” (Test System: AMES SALMONELLA TYPHIMURIUM, Strain/Indicator: TA100, Metabolic Activation: RAT, LIVER, S-9 (5%, 10% OR 20%) AROCLOR 1254, Method: STANDARD PLATE); “active; positive” (Test System: AMES SALMONELLA TYPHIMURIUM, Strain/Indicator: TA100, Metabolic Activation: RAT, LIVER, S-9, (5%, 10% OR 20%,) AROCLOR 1254, Method: STANDARD PLATE); “active; positive” (Test System: AMES SALMONELLA TYPHIMURIUM, Strain/Indicator: TA100, Metabolic Activation: RAT, LIVER, S-9, AROCLOR 1254, Method: PREINCUBATION); “active; positive” (Test System: AMES SALMONELLA TYPHIMURIUM, Strain/Indicator: TA100, Metabolic Activation: RAT, LIVER, S-9, KC500 OR PHENOBARBITAL, Method: LIQUID SUSPENSION); “active; positive” (Test System: AMES SALMONELLA TYPHIMURIUM, Strain/Indicator: TA100, Metabolic Activation: RAT, LIVER, S-9, PCB, Method: STANDARD PLATE); “active; positive” (Test System: AMES SALMONELLA TYPHIMURIUM, Strain/Indicator: TA100, Metabolic Activation: RAT, LIVER, S-9, PHENOBARBITAL AND 5,6-BENZOFLAVONE, Method: PREINCUBATION). Also, the mutagenic call by setting is: (Test System: AMES SALMONELLA TYPHIMURIUM, Strain/Indicator: TA100, Metabolic Activation: RAT, LIVER, S-9, PHENOBARBITAL AND 5,6-NAPHTHOFLAVONE, Method: PREINCUBATION) “active; positive”; (Test System: AMES SALMONELLA TYPHIMURIUM, Strain/Indicator: TA100, Metabolic Activation: RAT, LIVER, S-9, Method: PREINCUBATION) “active; positive”; (Test System: AMES SALMONELLA TYPHIMURIUM, Strain/Indicator: TA100, Metabolic Activation: S-9, Method: PREINCUBATION) “active; positive”; (Test System: AMES SALMONELLA TYPHIMURIUM, Strain/Indicator: TA1535, Metabolic Activation: NONE, Method: PREINCUBATION) “inactive; negative”; (Test System: AMES SALMONELLA TYPHIMURIUM, Strain/Indicator: TA1535, Metabolic Activation: RAT, LIVER, S-9, AROCLOR 1254, Method: STANDARD PLATE) “inactive; negative”; (Test System: AMES SALMONELLA TYPHIMURIUM, Strain/Indicator: TA1537, Metabolic Activation: NONE, Method: PREINCUBATION) “inactive; negative”. Besides, the mutagenic call is, setting by setting: (Test System: E. COLI, Strain/Indicator: WP2UVRA, Metabolic Activation: NONE, Method: PREINCUBATION) “inactive; negative”; (Test System: E.COLI, Strain/Indicator: WP2UVRA, Metabolic Activation: RAT LIVER S-9, PHENOBARBITAL AND BETA-NAPHTHOFLAVONE, Method: PREINCUBATION) “active; positive”; (Test System: UDS RODENT HEPATOCYTES, Strain/Indicator: THY INCORP (NON-S-PHASE), Metabolic Activation: IN VIVO, Method: AUTORADIOGRAPHY) “inactive; negative”; (Test System: UDS RODENT HEPATOCYTES, Strain/Indicator: THY INCORP (NON-S-PHASE), Metabolic Activation: NONE, Method: AUTORADIOGRAPHY) “active; positive”.

As for `C[Si](C)(C)CN(N=O)C(N)=O`, the mutagenic call reads like this: under setting [1], “active; positive”; (Test System: CHINESE HAMSTER V-79, Strain/Indicator: V-79/OUABAIN, Metabolic Activation: NONE) “active; positive”; (Test System: E. COLI, Strain/Indicator: H/R30R, Metabolic Activation: NONE, Method: PREINCUBATION) “active; positive”; (Test System: E. COLI, Strain/Indicator: HS30R UVRA, Metabolic Activation: NONE, Method: PREINCUBATION) “active; positive”; (Test System: E. COLI, Strain/Indicator: NG30 RECA, Metabolic Activation: NONE, Method: PREINCUBATION) “active; positive”; (Test System: E. COLI, Strain/Indicator: O16 POLA, Metabolic Activation: NONE, Method: PREINCUBATION) “active; positive”.

Regarding `ClC/C=C\CCl`, the mutagenic call runs as follows: (Test System: AMES SALMONELLA TYPHIMURIUM, Strain/Indicator: TA98, Metabolic Activation: HAMSTER, LIVER, S-9, AROCLOR 1254 (10%), Method: STANDARD PLATE) “active; positive”; (Test System: AMES SALMONELLA TYPHIMURIUM, Strain/Indicator: TA100, Metabolic Activation: HAMSTER, LIVER, S-9, AROCLOR 1254 (10%), Method: STANDARD PLATE) “active; positive”; (Test System: AMES SALMONELLA TYPHIMURIUM, Strain/Indicator: TA100, Metabolic Activation: NONE, Method: STANDARD PLATE) “active; positive”; (Test System: AMES SALMONELLA TYPHIMURIUM, Strain/Indicator: TA100, Metabolic Activation: RAT, LIVER, S-9, AROCLOR 1254 (10%), Method: STANDARD PLATE) “active; positive”; (Test System: MOUSE LYMPHOMA, Strain/Indicator: L5178Y (TK+/TK-), Metabolic Activation: NONE, Method: SUSPENSION/PLATE) “active; positive. reevaluation of results: positive”; (Test System: MOUSE LYMPHOMA, Strain/Indicator: L5178Y (TK+/TK-), Metabolic Activation: RAT, LIVER, S-9, AROCLOR 1254, Method: SUSPENSION/PLATE) “active; positive. reevaluation of results: positive”.
